{"source": "patent EP4679096A1", "about": "“BIOMARKERS AND METHOD FOR ESTIMATING BRAIN NEURODEGENERATIVE CONDITION” (SHIMADZU CORPORATION, priority 2023, dated 2024)", "assay": "Effect of plasma handling (thawed, about 2 hours at room temperature, re-frozen: RT2h-FT1) on NI of Ng peptides", "type": "in vitro ADME, human", "conditions": "FIG. 1", "method": "Among the 161 samples, samples obtained by thawing cryopreserved samples, placing the samples at room temperature for about 2 hours, and then re-freezing the samples are also included. In order to investigate the influence of this process on the measured value of the Ng peptide, the Ng peptide to be analyzed was evaluated using a part of the sample. In the measurement of the sample that was thawed, left at room temperature for about 2 hours, and then re-frozen (sample under the RT2h-FT1 condition), the above [purification] [mass spectrometry] was performed except that SIL-Ng50-78 was used as the internal standard peptide, and the internal standard peptide was diluted with the first buffer. The above [purification] [mass spectrometry] was also performed on the samples not subjected to the RT2h-FT1 process (samples under control conditions). For these, data processing was performed using data obtained by simultaneously measuring SIL-Ng50-78 and SIL-Ng45-75 and SIL-Ng24-75 such that the measured value of the RT2h-FT1 condition normalized with SIL-Ng50-78 was NI normalized with SIL-Ng45-75 and SIL-Ng24-75.\nFrom this, it can be seen that the decomposition of the Ng peptide proceeds by the time for which the plasma is stored in a thawed state and/or freeze-thawing. […]", "note": "Peptide text beside a SMILES is read from it.", "data": [{"smiles": "CC[C@H](C)[C@H](NC(=O)[C@@H](N)CCCCN)C(=O)N[C@@H](CCCCN)C(=O)N[C@@H](CO)C(=O)NCC(=O)N[C@@H](CCC(=O)O)C(=O)N[C@@H](CCCNC(=N)N)C(=O)NCC(=O)N[C@@H](CCCNC(=N)N)C(=O)N[C@@H](CCCCN)C(=O)NCC(=O)N1CCC[C@H]1C(=O)NCC(=O)N1CCC[C@H]1C(=O)NCC(=O)NCC(=O)N1CCC[C@H]1C(=O)NCC(=O)NCC(=O)N[C@@H](C)C(=O)NCC(=O)N[C@H](C(=O)N[C@@H](C)C(=O)N[C@@H](CCCNC(=N)N)C(=O)NCC(=O)NCC(=O)N[C@@H](C)C(=O)NCC(=O)NCC(=O)NCC(=O)N1CCC[C@H]1C(=O)O)C(C)C", "note": "[Ng45-75] (H-KIKSGERGRKGPGPGGPGGAGVARGGAGGGP-OH)", "values": [{"measurement": "change of NI under the RT2h-FT1 condition compared with the Control condition (decomposition in plasma)", "result": "smaller decrease width due to decomposition than the other Ng peptides"}]}, {"smiles": "CC(C)[C@H](NC(=O)CNC(=O)[C@H](C)NC(=O)CNC(=O)CNC(=O)[C@@H]1CCCN1C(=O)CNC(=O)CNC(=O)[C@@H]1CCCN1C(=O)CNC(=O)[C@@H]1CCCN1C(=O)CNC(=O)[C@H](CCCCN)NC(=O)[C@H](CCCNC(=N)N)NC(=O)CNC(=O)[C@H](CCCNC(=N)N)NC(=O)[C@@H](N)CCC(=O)O)C(=O)N[C@@H](C)C(=O)N[C@@H](CCCNC(=N)N)C(=O)NCC(=O)NCC(=O)N[C@@H](C)C(=O)NCC(=O)NCC(=O)NCC(=O)N1CCC[C@H]1C(=O)O", "note": "[Ng50-75] (H-ERGRKGPGPGGPGGAGVARGGAGGGP-OH)", "values": [{"measurement": "change of NI under the RT2h-FT1 condition compared with the Control condition (decomposition in plasma)", "result": "smaller decrease width due to decomposition than the other Ng peptides"}]}]}
